Laboratory results reported in patent US20100048727A1, “PERFLUOROKETONE COMPOUNDS AND USES THEREOF” (priority 2007, published 2010).

Legend:
human GIVA cPLA2 = molecular target: T1, human GIVA cPLA2 (Homo sapiens, UniProt P47712); assay: GIVA cPLA2 specific mixed micelle assay; format: biochemical; details: mean and standard error; for Average percent inhibition GIVA cPLA2: 0.091 mole fraction, n = 3
T1 sequence (P47712 1-749): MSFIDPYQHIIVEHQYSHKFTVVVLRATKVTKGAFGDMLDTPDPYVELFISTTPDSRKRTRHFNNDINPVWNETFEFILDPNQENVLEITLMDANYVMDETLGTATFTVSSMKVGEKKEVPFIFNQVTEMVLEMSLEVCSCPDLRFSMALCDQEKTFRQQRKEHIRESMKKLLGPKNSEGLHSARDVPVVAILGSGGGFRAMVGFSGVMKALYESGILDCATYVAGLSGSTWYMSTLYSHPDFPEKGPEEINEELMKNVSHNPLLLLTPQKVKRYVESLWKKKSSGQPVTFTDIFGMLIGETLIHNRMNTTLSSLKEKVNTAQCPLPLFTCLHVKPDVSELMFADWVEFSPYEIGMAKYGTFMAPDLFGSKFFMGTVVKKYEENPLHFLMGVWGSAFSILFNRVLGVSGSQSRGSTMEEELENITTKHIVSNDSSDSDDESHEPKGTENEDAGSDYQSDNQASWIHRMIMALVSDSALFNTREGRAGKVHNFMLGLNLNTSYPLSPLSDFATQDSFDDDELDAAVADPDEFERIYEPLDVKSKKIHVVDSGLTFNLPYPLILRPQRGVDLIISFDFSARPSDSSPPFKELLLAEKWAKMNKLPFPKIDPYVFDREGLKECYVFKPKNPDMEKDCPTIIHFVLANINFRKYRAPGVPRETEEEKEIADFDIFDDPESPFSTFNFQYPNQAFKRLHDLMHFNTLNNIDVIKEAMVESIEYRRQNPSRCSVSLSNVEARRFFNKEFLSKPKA
Description: (§1) Inhibition of phospholipase A2 by perfluoroketone compounds. […] (2002) J. Med. Chem. 45: 2891-2893; Kokotos, G. et al. (2004). J. Med. Chem. 47: 3615-3628). The standard GVIA iPLA2 activity assay utilizes DPPC/Triton™ X-100 mixed micelles at a ratio of 1:4 as previously described (Stephens D. et al. (2006). J. Med. Chem., 49: 2821-2828). GV sPLA2 activity was measured in an assay similar to the assays for GIVA cPLA2 and GVIA iPLA2.

GVIA iPLA2 = molecular target: T2, GVIA iPLA2 (Homo sapiens, UniProt O60733); assay: standard GVIA iPLA2 activity assay (DPPC/Triton X-100 mixed micelles); format: biochemical; details: mean and standard error; for inhibition at 0.091 mole fraction: n = 3, read-out: Average percent inhibition GVIA iPLA2; for Average percent inhibition GVIA iPLA2: 0.091 mole fraction, n = 3
T2 sequence (O60733 1-806): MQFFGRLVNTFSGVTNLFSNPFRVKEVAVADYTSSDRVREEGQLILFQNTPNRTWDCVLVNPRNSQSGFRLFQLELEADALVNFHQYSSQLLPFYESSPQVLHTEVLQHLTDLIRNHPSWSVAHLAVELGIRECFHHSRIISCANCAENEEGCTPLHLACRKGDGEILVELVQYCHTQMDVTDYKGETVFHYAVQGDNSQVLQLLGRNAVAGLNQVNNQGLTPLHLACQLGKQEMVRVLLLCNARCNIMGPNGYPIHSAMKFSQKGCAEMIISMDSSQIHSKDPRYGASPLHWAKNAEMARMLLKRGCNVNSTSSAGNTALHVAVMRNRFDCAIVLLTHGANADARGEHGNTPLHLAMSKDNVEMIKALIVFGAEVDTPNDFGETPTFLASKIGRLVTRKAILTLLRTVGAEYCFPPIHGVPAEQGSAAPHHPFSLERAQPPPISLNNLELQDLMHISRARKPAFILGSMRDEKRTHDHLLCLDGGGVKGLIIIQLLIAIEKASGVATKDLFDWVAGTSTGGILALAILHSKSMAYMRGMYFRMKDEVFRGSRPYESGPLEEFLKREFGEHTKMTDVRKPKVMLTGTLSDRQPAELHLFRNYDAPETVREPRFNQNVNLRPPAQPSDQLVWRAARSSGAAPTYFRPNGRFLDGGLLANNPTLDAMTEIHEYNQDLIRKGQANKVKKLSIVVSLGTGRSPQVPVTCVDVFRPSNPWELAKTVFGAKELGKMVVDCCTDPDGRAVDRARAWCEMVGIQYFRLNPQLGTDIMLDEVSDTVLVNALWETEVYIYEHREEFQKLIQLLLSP
Description: as §1

GV sPLA2 = molecular target: T3, GV sPLA2 (Homo sapiens, UniProt P39877); assay: GV sPLA2 activity assay (release of [14C]-palmitic acid from mixed micelles); format: biochemical; details: mean and standard error; for Average percent inhibition GV sPLA2: 0.091 mole fraction, n = 3
T3 sequence (P39877 21-138): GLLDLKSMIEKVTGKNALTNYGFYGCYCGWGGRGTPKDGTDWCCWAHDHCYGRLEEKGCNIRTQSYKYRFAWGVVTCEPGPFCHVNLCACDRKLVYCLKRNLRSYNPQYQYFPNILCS
Description: as §1

EAE-induced SJL/J mice = assay: Clinical course of EAE in SJL/J mice treated with fluoroketone compounds; format: in vivo

Row | Compound | inhibition at 0.091 mole fraction (human GIVA cPLA2; n = 3, read-out: Average percent inhibition GIVA cPLA2) [%] | inhibition at 0.091 mole fraction (GVIA iPLA2) [%] | inhibition at 0.091 mole fraction (GV sPLA2; n = 3, read-out: Average percent inhibition GV sPLA2) [%] | Average percent inhibition GIVA cPLA2 (human GIVA cPLA2) [%] | Average percent inhibition GVIA iPLA2 (GVIA iPLA2) [%] | Average percent inhibition GV sPLA2 (GV sPLA2) [%] | melting point [°C] | severity and progression of the disease (EAE) (EAE-induced SJL/J mice; delayed treatment from day 11 after immunization, 2 weeks, i.p., vs vehicle) | maximum clinical disability score (EAE-induced SJL/J mice; treatment before onset of symptoms, daily for 3 weeks from day 6, course until day 40, 5-point scale)
1 | O=C(C(F)(F)F)C(F)(F)CCCc1ccccc1 [FKGK7, 1,1,1,3,3-Pentafluoro-6-phenyl-hexan-2-one] | 27 ± 3 | 49 ± 12 | 59 ± 12 | – | – | – | – | – | –
2 | O=C(CCCCCCc1ccccc1)C(F)(F)C(F)(F)F [FKGK13, 1,1,1,2,2-Pentafluoro-9-phenyl-3-nonanone] | – | – | – | 65 ± 12 | 98 ± 4 | 75 ± 10 | – | – | –
3 | CCCCCCCCCCCCCCC(F)C(=O)C(F)(F)F (stereo not drawn) [FKGK8, 1,1,1,3-Tetrafluoro-2-heptadecanone] | – | – | – | 94 ± 2 | 93 ± 4 | 86 ± 10 | – | – | –
4 | CCCCCCOc1ccc(CCC(=O)C(F)(F)F)cc1 [FKGK1, 1,1,1-Trifluoro-4-(4-hexyloxy-phenyl)-2-butanone] | – | – | – | 91 ± 2 | 85 ± 4 | 82 ± 8 | – | – | –
5 | O=C(CCCCCc1ccccc1)C(F)(F)C(F)(F)F [FKGK12, 1,1,1,2,2-Pentafluoro-8-phenyl-3-octanone] | – | – | – | 56 ± 4 | 98 ± 5 | 46 ± 8 | – | – | –

Further lines, with some results ahead:

Row | inhibition at 0.091 mole fraction (human GIVA cPLA2; n = 3, read-out: Average percent inhibition GIVA cPLA2) [%] | inhibition at 0.091 mole fraction (GVIA iPLA2) [%] | inhibition at 0.091 mole fraction (GV sPLA2; n = 3, read-out: Average percent inhibition GV sPLA2) [%] | Average percent inhibition GIVA cPLA2 (human GIVA cPLA2) [%] | Average percent inhibition GVIA iPLA2 (GVIA iPLA2) [%] | Average percent inhibition GV sPLA2 (GV sPLA2) [%] | melting point [°C] | Compound | severity and progression of the disease (EAE) (EAE-induced SJL/J mice; delayed treatment from day 11 after immunization, 2 weeks, i.p., vs vehicle) | maximum clinical disability score (EAE-induced SJL/J mice; treatment before onset of symptoms, daily for 3 weeks from day 6, course until day 40, 5-point scale)
6 | – | 94 ± 8 | – | 95 ± 2 | – | 84 ± 7 | – | CCCCCCCCCCOc1ccc(CCCCC(=O)C(F)(F)F)cc1 [FKGK4, 1,1,1-Trifluoro-6-(4-decyloxy-phenyl)-2-hexanone] | – | –
7 | – | – | – | 73 ± 4 | 95 ± 5 | 86 ± 4 | – | CCCCCCOc1ccc(CCC(=O)C(F)(F)C(F)(F)F)cc1 [FKGK14, 1,1,1,2,2-Pentafluoro-5-(4-hexyloxy-phenyl)-3-pentanone] | – | –
8 | – | – | – | 92 ± 3 | 91 ± 4 | 86 ± 2 | – | CCCCCCOc1ccc(CCCCC(=O)C(F)(F)F)cc1 [FKGK2, 1,1,1-Trifluoro-6-(4hexyloxy-phenyl)-2-hexanone] | did not show any significant improvement | around 0.5 grade
9 | – | – | – | 96 ± 2 | 94 ± 8 | 80 ± 6 | – | CCCCCCCCCCOc1ccc(CCC(=O)C(F)(F)F)cc1 [FKGK3, 1,1,1-Trifluoro-4-(4-decyloxy-phenyl)-2-butanone] | – | –
10 | – | – | – | 88 ± 1 | 71 ± 14 | 49 ± 12 | 71 to 72 | O=C(CCc1ccc(OCc2ccccc2)cc1)C(F)(F)F [FKGK5, 1,1,1-Trifluoro-4-(4-benzyloxy-phenyl)-2-butanone] | – | –
